In ChEMBL document CHEMBL1145418, “Cerebrosides and tocopherol trimers from the seeds of Euryale ferox” (J Nat Prod, 2007):

system: not listed separately; assay: (§1) Toxicity against brine shrimp after 24 hr by brine shrimp lethality test; format: organism-based; conditions: artemia, in vivo

With CCCCCCC/C=C/CC/C=C/[C@@H](O)[C@H](CO[C@@H]1O[C@H](CO)[C@@H](O)[C@H](O)[C@H]1O)NC(=O)[C@H](O)CCCCCCCCCCCCCCCCCCCC as the compound, how does the LC50 at 24 h read?
The LC50 at 24 h was 170 µM.

With CCCCCCC/C=C/CC/C=C/[C@@H](O)[C@H](CO[C@@H]1O[C@H](CO)[C@@H](O)[C@H](O)[C@H]1O)NC(=O)[C@H](O)CCCCCCCCCCCCCCCCCCCCCC as the compound, how does the LC50 at 24 h read?
The LC50 at 24 h was 200 µM.

system: Artemia; assay: as §1; format: organism-based; conditions: in vivo, 24 h

With CC1=C(C)[C@@]23Oc4c(C)c(C)c5c(c4C[C@@]2(CC[C@@](C)(CCCC(C)CCCC(C)CCCC(C)C)O3)C2(Cc3c4c(c(C)c(C)c3O2)O[C@](C)(CCCC(C)CCCC(C)CCCC(C)C)CC4)C1=O)CC[C@@](C)(CCCC(C)CCCC(C)CCCC(C)C)O5 (stereo partly specified) [FEROTOCOTRIMER C] as the compound, how does the Activity read?
Its Activity is “Non-toxic”.

For CC1=C(C)[C@]23Oc4c(C)c(C)c5c(c4C[C@]2(CC[C@@](C)(CCCC(C)CCCC(C)CCCC(C)C)O3)C2(Cc3c4c(c(C)c(C)c3O2)O[C@](C)(CCCC(C)CCCC(C)CCCC(C)C)CC4)C1=O)CC[C@@](C)(CCCC(C)CCCC(C)CCCC(C)C)O5 (stereo partly specified) [FEROTOCOTRIMER D], which Activity is on record?
The Activity was “Non-toxic”.

For CC1=C(C)[C@]23Oc4c(C)c(C)c5c(c4C[C@]2(CC[C@@](C)(CCCC(C)CCCC(C)CCCC(C)C)O3)C2(CCc3c4c(c(C)c(C)c3O2)O[C@](C)(CCCC(C)CCCC(C)CCCC(C)C)CC4)C1=O)CC[C@@](C)(CCCC(C)CCCC(C)CCCC(C)C)O5 (stereo partly specified) [TOCOPHEROL TRIMER IVA], which Activity is on record?
Its Activity is “Non-toxic”.

Which Activity does the source give for CC1=C(C)[C@@]23Oc4c(C)c(C)c5c(c4C[C@@]2(CC[C@@](C)(CCCC(C)CCCC(C)CCCC(C)C)O3)C2(CCc3c4c(c(C)c(C)c3O2)O[C@](C)(CCCC(C)CCCC(C)CCCC(C)C)CC4)C1=O)CC[C@@](C)(CCCC(C)CCCC(C)CCCC(C)C)O5 (stereo partly specified) [TOCOPHEROL TRIMER IVB] here?
The Activity was “Non-toxic”.
